Laboratory results from EP4559923A1, “ANTIHISTAMINE COMPOUND, AND PREPARATION METHOD THEREFOR AND USE THEREOF” (HC Synthetic Pharmaceutical Co., Ltd., priority 2022, dated 2024).

Tests used:
histamine-induced asthma = assay: Antiasthmatic effect on histamine-induced asthma in guinea pigs (latency period); type: in vivo; details: 1 mg/kg oral gavage, sixty minutes after administration; histamine hydrochloride spray; no asthma within 8 minutes counted as 8 minutes; X±s, n = 5
Procedure: The guinea pigs were placed in a polymethyl methacrylate bell jar and a histamine hydrochloride solution was sprayed ultrasonically (0.8 mg/mL) for 40 seconds. The time point at which the guinea pigs developed asthma was recorded. The time of convulsion and fall was taken as the latency period. Guinea pigs with a latency period exceeding 180 seconds were not selected. […] The guinea pigs were administered by oral gavage at a dose of 2 mL/kg·bw. Sixty minutes after the administration, the guinea pigs were placed in bell jars, and histamine hydrochloride solution was sprayed under the same conditions as in the previous selection. The latency period for the onset of asthma was recorded. […] The results were processed statistically.

[1] = Muscle tone of isolated ileal smooth muscle of guinea pigs contracted with histamine; details: Table 4; 3 minutes after adding 0.05 mL compound at maximum histamine contraction; x±s, n = 8
Procedure: (§1) The guinea pig was knocked unconscious with a wooden stick, and the abdomen was immediately dissected to separate the ileum about 15 cm in length. The contents of the intestinal segment were flushed with Tyrode's solution and placed in Tyrode's solution at a constant temperature of 37°C for later use, and oxygen was supplied simultaneously. The experimental intestinal tract (1 cm in length) was cut and placed into 20 ml of Tyrode's solution at a constant temperature of 37°C with a continuous oxygen supply. One end of the intestine was fixed on the ventilation hook and the other end was connected to the muscle tone transducer and led to the computer interface. The muscle tone value of the ileal smooth muscle was recorded with a BL system. The experiment was carried out after the intestinal segment contraction became stable.
(§2) After the ileal peristalsis curve stabilized, the tone values before adding the compound were recorded, and then 0.05 mL of histamine was added. […] The operation was repeated 8 times. The antispasmodic percentage was calculated using the following equation. Antispasmodic percentage; = (Tone value after adding histamine−Tone value after adding subject compound)/(Tone value after adding histamine) × 100% [formula]

histamine = assay: as above; details: Table 4; relative to tone after adding histamine; x±s, n = 8; 3 min
Procedure: as §1, §2

[2] = Accelerated stability test; type: physicochemical; details: 40°C ± 2°C, relative humidity 75% ± 5%; for remaining at 730 h / remaining at 1460 h / remaining at 2190 h / remaining at 4380 h: storage 75% relative humidity, read-out: Content
[3] = tested on: isolated ileal smooth muscle; assay: Muscle tone of isolated ileal smooth muscle of guinea pigs, compound alone; details: Table 3, no histamine, X±s, n = 8; for Smooth muscle tone (g) After administration: 5 minutes after adding the drug; for Antispasmodic percentage (%): relative to tone before adding compound, 5 min
Procedure: as §1
After the ileum contraction curve stabilized, the tone values before adding the drug were recorded, then the drug or DMSO was added, and the average tone value of the ileum contraction curve at that point was recorded 5 minutes later. The operation was repeated 8 times. The antispasmodic percentage was calculated according to the following formula. Antispasmodic percentage =; (Tone value before adding subject compound−Tone value after adding subject compound)/(Tone value before adding subject compound) × 100% [formula]

SMILES	Post-administration latency period (histamine-induced asthma) [s]	Smooth muscle tone (g) After administration [1] [g]	Antispasmodic percentage (%) (histamine)	Content ([2]; Month 0) [%]	Description ([2]; Month 0)	Related substances ([2]; Month 0) [%]	Description ([2]; Month 1)	Related substances ([2]; Month 1) [%]	Description ([2]; Month 2)	Related substances ([2]; Month 2) [%]	Description ([2]; Month 3)	Related substances ([2]; Month 3) [%]	Description ([2]; Month 6)	Related substances ([2]; Month 6) [%]	remaining at 730 h ([2]; Month 1) [%]	remaining at 1460 h ([2]; Month 2) [%]	remaining at 2190 h ([2]; Month 3) [%]	remaining at 4380 h ([2]; Month 6) [%]	Smooth muscle tone (g) After administration [3] [g]	Antispasmodic percentage (%) [3] [%]
O=P(O)(O)OCCCCCN1CCC(=C2c3ccc(F)cc3CCc3cccnc32)CC1 [Compound III-14]	372.40 ± 50.33	1.15 ± 0.22	66.07±19.34	99.6	White powder	0.03	White powder	0.06	White powder	0.11	White powder	0.15	White powder	0.32	99.5	99.5	99.5	99.3	1.18 ± 0.28	31.79±17.77
O=P(O)(O)OCOCCCCN1CCC(=C2c3ccc(Cl)cc3CCc3cccnc32)CC1 [Compound III-18]	354.29 ± 50.81	1.18 ± 0.26	65.50±19.34	99.7	White powder	0.03	White powder	0.06	White powder	0.12	White powder	0.16	White powder	0.34	99.6	99.5	99.5	99.4	1.13 ± 0.21	34.30±18.66
O=P(O)(O)OCCN1CCC(=C2c3ccc(Cl)cc3CCc3cccnc32)CC1 [Compound IV-2]	383.10 ± 50.33	1.18 ± 0.19	65.56±19.28	99.6	White powder	0.03	White powder	0.05	White powder	0.09	White powder	0.13	White powder	0.26	99.6	99.5	99.5	99.4	1.19 ± 0.31	33.14±18.39
O=P(O)(O)OCOCCN1CCC(=C2c3ccc(Cl)cc3CCc3cccnc32)CC1 [Compound IV-8]	360.12 ± 52.01	1.19 ± 0.28	65.50±19.11	99.6	White powder	0.03	White powder	0.06	White powder	0.09	White powder	0.14	White powder	0.28	99.6	99.5	99.5	99.3	1.19 ± 0.29	30.81±18.93
O=P(O)(O)OCOCCCCCN1CCC(=C2c3ccc(Cl)cc3CCc3cccnc32)CC1 [Compound IV-11]	364.85 ± 51.11	1.18 ± 0.28	65.89±19.39	–	–	–	–	–	–	–	–	–	–	–	–	–	–	–	1.18 ± 0.31	32.57±19.31
